Measurements from patent US11541028B2, “Peptide pharmaceuticals for treatment of NASH and other disorders” (Mederis Diabetes LLC, priority 2018, dated 2023).
Read-outs that look alike come from different tables or passages of the source. Bridge positions count the residues as written; N and C are the ends. Square brackets hold non-standard residues; d marks the D form. Peptide text beside a SMILES is read from it. * marks the point of attachment. Melibiouronoyl(1β-O-dodecyl) = CCCCCCCCCCCCO[C@@H]1O[C@H](CO[C@H]2O[C@H](C(=O)*)[C@H](O)[C@H](O)[C@H]2O)[C@@H](O)[C@H](O)[C@H]1O; βDGlcA(1-OC18H37) = CCCCCCCCCCCCCCCCCCO[C@@H]1O[C@H](C(=O)*)[C@@H](O)[C@H](O)[C@H]1O; Bip = N[C@@H](Cc1ccc(-c2ccccc2)cc1)C(=O)O; αMeF = C[C@](N)(Cc1ccccc1)C(=O)O; Aib = CC(C)(N)C(=O)O

Legend:
[1] = biological target: T1, human glucagon receptor (Homo sapiens, UniProt P47871); assay: DiscoveRx LeadHunter cellular assay, cAMP stimulation, glucagon receptor in CHO cells; type: cell-based
T1 construct: host or cells: CHO cells
T1 sequence (P47871 26-477): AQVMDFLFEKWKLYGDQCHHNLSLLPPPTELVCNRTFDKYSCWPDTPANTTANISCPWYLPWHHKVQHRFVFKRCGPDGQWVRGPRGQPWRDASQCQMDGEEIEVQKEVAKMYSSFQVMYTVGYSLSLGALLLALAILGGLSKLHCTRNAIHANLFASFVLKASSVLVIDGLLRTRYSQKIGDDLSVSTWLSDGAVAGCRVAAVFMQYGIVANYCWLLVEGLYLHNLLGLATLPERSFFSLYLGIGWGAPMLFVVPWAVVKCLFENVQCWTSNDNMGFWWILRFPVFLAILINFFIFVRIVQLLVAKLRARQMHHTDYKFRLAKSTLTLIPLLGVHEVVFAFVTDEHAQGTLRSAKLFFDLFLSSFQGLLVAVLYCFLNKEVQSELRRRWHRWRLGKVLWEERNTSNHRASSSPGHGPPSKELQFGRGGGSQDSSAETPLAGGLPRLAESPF
Description: (§1) A further series of cellular assays was carried out with standard cellular assays (DiscoveRx, LeadHunter assays) using readout of cAMP stimulation or arrestin activation. Compounds were weighed precisely in an amount of about 1 mg and shipped to DiscoveRx for dilution and assay.

[2] = biological target: T2, human GLP-1 receptor (Homo sapiens, UniProt P43220); assay: DiscoveRx LeadHunter cellular assay, cAMP stimulation, GLP-1 receptor in CHO cells; type: cell-based; details: human GLP-1 receptor in CHO cells (DiscoveRx); read-out: EC50 cAMP GLP-1 R
T2 construct: host or cells: CHO cells
T2 sequence (P43220 24-463): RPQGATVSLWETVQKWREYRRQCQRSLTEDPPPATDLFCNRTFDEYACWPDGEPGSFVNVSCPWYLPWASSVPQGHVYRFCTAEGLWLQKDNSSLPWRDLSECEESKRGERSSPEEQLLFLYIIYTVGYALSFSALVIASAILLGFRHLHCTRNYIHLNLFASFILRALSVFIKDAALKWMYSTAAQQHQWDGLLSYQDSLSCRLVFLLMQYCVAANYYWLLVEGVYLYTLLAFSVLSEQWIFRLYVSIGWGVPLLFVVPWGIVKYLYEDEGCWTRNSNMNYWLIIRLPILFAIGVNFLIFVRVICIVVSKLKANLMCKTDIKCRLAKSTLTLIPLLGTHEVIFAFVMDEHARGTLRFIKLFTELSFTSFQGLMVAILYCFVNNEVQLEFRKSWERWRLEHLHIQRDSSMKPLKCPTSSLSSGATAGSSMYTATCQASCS
Description: as §1

Structure (SMILES)	EC50 ([1]; read-out: EC50 cAMP Glucagon R, human glucagon receptor in CHO cells (DiscoveRx)) [nM]	EC50 [2] [nM]	EC50 [1] [nM]
CCCCCCCCCCCCCCCCCCO[C@@H]1O[C@H](C(=O)NCCCC[C@H](NC(=O)[C@H](Cc2ccc(-c3ccccc3)cc2)NC(=O)[C@H](CC(=O)O)NC(=O)[C@H](CO)NC(=O)[C@@H](NC(=O)[C@](C)(Cc2ccccc2)NC(=O)[C@@H](NC(=O)CNC(=O)[C@H](CCC(N)=O)NC(=O)C(C)(C)NC(=O)[C@@H](N)Cc2c[nH]cn2)[C@@H](C)O)[C@@H](C)O)C(N)=O)[C@@H](O)[C@H](O)[C@H]1O [EU-A757] (H-H[Aib]QGT[αMeF]TSD[Bip]K(βDGlcA(1-OC18H37))-NH2; N-terminus assumed)	> 1000	–	–
CCCCCCCCCCCCCCCCCCO[C@@H]1O[C@H](C(=O)NCCCC[C@H](NC(=O)[C@@H](NC(=O)[C@H](Cc2ccccc2)NC(=O)[C@H](CCC(=O)O)NC(=O)[C@@H]2CCCCNC(=O)CC[C@H](NC(=O)[C@H](CC(=O)O)NC(=O)[C@H](CC(C)C)NC(=O)[C@H](Cc3ccc(O)cc3)NC(=O)[C@H](CCCCN)NC(=O)[C@H](CO)NC(=O)[C@H](Cc3ccc(O)cc3)NC(=O)[C@H](CC(=O)O)NC(=O)[C@H](CO)NC(=O)[C@@H](NC(=O)[C@H](Cc3ccccc3)NC(=O)[C@@H](NC(=O)CNC(=O)[C@H](CCC(N)=O)NC(=O)C(C)(C)NC(=O)[C@@H](N)Cc3c[nH]cn3)[C@@H](C)O)[C@@H](C)O)C(=O)N[C@@H](CCC(N)=O)C(=O)N[C@@H](C)C(=O)N[C@@H](C)C(=O)N2)[C@@H](C)CC)C(=O)N[C@@H](Cc2c[nH]c3ccccc23)C(=O)N[C@@H](CC(C)C)C(=O)N[C@@H](CC(C)C)C(=O)N[C@@H](CCC(N)=O)C(=O)N[C@H](C(N)=O)[C@@H](C)O)[C@@H](O)[C@H](O)[C@H]1O [EU-A996]	–	0.05	–
CCCCCCCCCCCCO[C@@H]1O[C@H](C(=O)O)[C@@H](O[C@H]2O[C@H](C(=O)NCCCC[C@H](NC(=O)[C@@H](NC(=O)[C@H](Cc3ccccc3)NC(=O)[C@H](CCC(=O)O)NC(=O)[C@@H]3CCCCNC(=O)CC[C@H](NC(=O)[C@H](CC(=O)O)NC(=O)[C@H](CC(C)C)NC(=O)[C@H](Cc4ccc(O)cc4)NC(=O)[C@H](CCCCN)NC(=O)[C@H](CO)NC(=O)[C@H](Cc4ccc(O)cc4)NC(=O)[C@H](CC(=O)O)NC(=O)[C@H](CO)NC(=O)[C@@H](NC(=O)[C@H](Cc4ccccc4)NC(=O)[C@@H](NC(=O)CNC(=O)[C@H](CCC(N)=O)NC(=O)C(C)(C)NC(=O)[C@@H](N)Cc4c[nH]cn4)[C@@H](C)O)[C@@H](C)O)C(=O)N[C@@H](CCC(N)=O)C(=O)N[C@@H](C)C(=O)N[C@@H](C)C(=O)N3)[C@@H](C)CC)C(=O)N[C@@H](Cc3c[nH]c4ccccc34)C(=O)N[C@@H](CC(C)C)C(=O)N[C@@H](CC(C)C)C(=O)N[C@@H](CCC(N)=O)C(=O)N[C@H](C(N)=O)[C@@H](C)O)[C@@H](O)[C@H](O)[C@H]2O)[C@H](O)[C@H]1O [EU-A999]	–	0.05	–
CCCCCCCCCCCCCCCCO[C@@H]1O[C@H](CO[C@H]2O[C@H](C(=O)NCCCC[C@H](NC(=O)[C@@H](NC(=O)[C@H](Cc3ccccc3)NC(=O)[C@H](CCC(=O)O)NC(=O)[C@@H]3CCCCNC(=O)CC[C@H](NC(=O)[C@H](CC(=O)O)NC(=O)[C@H](CC(C)C)NC(=O)[C@H](Cc4ccc(O)cc4)NC(=O)[C@H](CCCCN)NC(=O)[C@H](CO)NC(=O)[C@H](Cc4ccc(O)cc4)NC(=O)[C@H](CC(=O)O)NC(=O)[C@H](CO)NC(=O)[C@@H](NC(=O)[C@H](Cc4ccccc4)NC(=O)[C@@H](NC(=O)CNC(=O)[C@H](CCC(N)=O)NC(=O)C(C)(C)NC(=O)[C@@H](N)Cc4c[nH]cn4)[C@@H](C)O)[C@@H](C)O)C(=O)N[C@@H](CCC(N)=O)C(=O)N[C@@H](C)C(=O)N[C@@H](C)C(=O)N3)[C@@H](C)CC)C(=O)N[C@@H](Cc3c[nH]c4ccccc34)C(=O)N[C@@H](CC(C)C)C(=O)N[C@@H](CC(C)C)C(=O)N[C@@H](CCC(N)=O)C(=O)N[C@H](C(N)=O)[C@@H](C)O)[C@H](O)[C@H](O)[C@H]2O)[C@@H](O)[C@H](O)[C@H]1O [EU-A1025]	–	0.008	0.24
CCCCCCCCCCCCCCCCO[C@H]1O[C@H](CO[C@H]2O[C@H](C(=O)NCCCC[C@H](NC(=O)[C@@H](NC(=O)[C@H](Cc3ccccc3)NC(=O)[C@H](CCC(=O)O)NC(=O)[C@@H]3CCCCNC(=O)CC[C@H](NC(=O)[C@H](CC(=O)O)NC(=O)[C@H](CC(C)C)NC(=O)[C@H](Cc4ccc(O)cc4)NC(=O)[C@H](CCCCN)NC(=O)[C@H](CO)NC(=O)[C@H](Cc4ccc(O)cc4)NC(=O)[C@H](CC(=O)O)NC(=O)[C@H](CO)NC(=O)[C@@H](NC(=O)[C@H](Cc4ccccc4)NC(=O)[C@@H](NC(=O)CNC(=O)[C@H](CCC(N)=O)NC(=O)C(C)(C)NC(=O)[C@@H](N)Cc4c[nH]cn4)[C@@H](C)O)[C@@H](C)O)C(=O)N[C@@H](CCC(N)=O)C(=O)N[C@@H](C)C(=O)N[C@@H](C)C(=O)N3)[C@@H](C)CC)C(=O)N[C@@H](Cc3c[nH]c4ccccc34)C(=O)N[C@@H](CC(C)C)C(=O)N[C@@H](CC(C)C)C(=O)N[C@@H](CCC(N)=O)C(=O)N[C@H](C(N)=O)[C@@H](C)O)[C@H](O)[C@H](O)[C@H]2O)[C@@H](O)[C@H](O)[C@H]1O [EU-A1173]	–	0.021	0.463
CCCCCCCCCCCCO[C@@H]1O[C@H](CO[C@H]2O[C@H](C(=O)NCCCC[C@H](NC(=O)[C@@H](NC(=O)[C@H](Cc3ccccc3)NC(=O)[C@H](CCC(=O)O)NC(=O)[C@@H]3CCCCNC(=O)CC[C@H](NC(=O)[C@H](CC(=O)O)NC(=O)[C@H](CC(C)C)NC(=O)[C@H](Cc4ccc(O)cc4)NC(=O)[C@H](CCCCN)NC(=O)[C@H](CO)NC(=O)[C@H](Cc4ccc(O)cc4)NC(=O)[C@H](CC(=O)O)NC(=O)[C@H](CO)NC(=O)[C@@H](NC(=O)[C@H](Cc4ccccc4)NC(=O)[C@@H](NC(=O)CNC(=O)[C@H](CCC(N)=O)NC(=O)C(C)(C)NC(=O)[C@@H](N)Cc4c[nH]cn4)[C@@H](C)O)[C@@H](C)O)C(=O)N[C@@H](CCC(N)=O)C(=O)N[C@@H](C)C(=O)N[C@@H](C)C(=O)N3)[C@@H](C)CC)C(=O)N[C@@H](Cc3c[nH]c4ccccc34)C(=O)N[C@@H](CC(C)C)C(=O)N[C@@H](CC(C)C)C(=O)N[C@@H](CCC(N)=O)C(=O)N[C@H](C(=O)O)[C@@H](C)O)[C@H](O)[C@H](O)[C@H]2O)[C@@H](O)[C@H](O)[C@H]1O [EU-A1576]	–	0.032	0.07
CCCCCCCCCCCCCCO[C@@H]1O[C@H](CO[C@H]2O[C@H](C(=O)NCCCC[C@H](NC(=O)[C@@H](NC(=O)[C@H](Cc3ccccc3)NC(=O)[C@H](CCC(=O)O)NC(=O)[C@@H]3CCCCNC(=O)CC[C@H](NC(=O)[C@H](CC(=O)O)NC(=O)[C@H](CC(C)C)NC(=O)[C@H](Cc4ccc(O)cc4)NC(=O)[C@H](CCCCN)NC(=O)[C@H](CO)NC(=O)[C@H](Cc4ccc(O)cc4)NC(=O)[C@H](CC(=O)O)NC(=O)[C@H](CO)NC(=O)[C@@H](NC(=O)[C@H](Cc4ccccc4)NC(=O)[C@@H](NC(=O)CNC(=O)[C@H](CCC(N)=O)NC(=O)C(C)(C)NC(=O)[C@@H](N)Cc4c[nH]cn4)[C@@H](C)O)[C@@H](C)O)C(=O)N[C@@H](CCC(N)=O)C(=O)N[C@@H](C)C(=O)N[C@@H](C)C(=O)N3)[C@@H](C)CC)C(=O)N[C@@H](Cc3c[nH]c4ccccc34)C(=O)N[C@@H](CC(C)C)C(=O)N[C@@H](CC(C)C)C(=O)N[C@@H](CCC(N)=O)C(=O)N[C@H](C(=O)O)[C@@H](C)O)[C@H](O)[C@H](O)[C@H]2O)[C@@H](O)[C@H](O)[C@H]1O [EU-A1577]	–	0.007	0.069
CCCCCCCCCCCCCCCCO[C@@H]1O[C@H](CO[C@H]2O[C@H](C(=O)NCCCC[C@H](NC(=O)[C@@H](NC(=O)[C@H](Cc3ccccc3)NC(=O)[C@H](CCC(=O)O)NC(=O)[C@@H]3CCCCNC(=O)CC[C@H](NC(=O)[C@H](CC(=O)O)NC(=O)[C@H](CC(C)C)NC(=O)[C@H](Cc4ccc(O)cc4)NC(=O)[C@H](CCCCN)NC(=O)[C@H](CO)NC(=O)[C@H](Cc4ccc(O)cc4)NC(=O)[C@H](CC(=O)O)NC(=O)[C@H](CO)NC(=O)[C@@H](NC(=O)[C@H](Cc4ccccc4)NC(=O)[C@@H](NC(=O)CNC(=O)[C@H](CCC(N)=O)NC(=O)C(C)(C)NC(=O)[C@@H](N)Cc4c[nH]cn4)[C@@H](C)O)[C@@H](C)O)C(=O)N[C@@H](CCC(N)=O)C(=O)N[C@@H](C)C(=O)N[C@@H](C)C(=O)N3)[C@@H](C)CC)C(=O)N[C@@H](Cc3c[nH]c4ccccc34)C(=O)N[C@@H](CC(C)C)C(=O)N[C@@H](CC(C)C)C(=O)N[C@@H](CCC(N)=O)C(=O)N[C@H](C(=O)O)[C@@H](C)O)[C@H](O)[C@H](O)[C@H]2O)[C@@H](O)[C@H](O)[C@H]1O [EU-A1578]	–	0.008	0.355
CCCCCCCCCCCCO[C@@H]1O[C@H](CO[C@H]2O[C@H](C(=O)NCCCC[C@H](NC(=O)[C@@H](NC(=O)[C@H](Cc3ccccc3)NC(=O)[C@H](CCC(=O)O)NC(=O)[C@@H]3CCCCNC(=O)CC[C@H](NC(=O)[C@H](CC(=O)O)NC(=O)[C@H](CC(C)C)NC(=O)[C@H](Cc4ccc(O)cc4)NC(=O)[C@H](CCCCN)NC(=O)[C@H](CO)NC(=O)[C@H](Cc4ccc(O)cc4)NC(=O)[C@H](CC(=O)O)NC(=O)[C@H](CO)NC(=O)[C@@H](NC(=O)[C@H](Cc4ccccc4)NC(=O)[C@@H](NC(=O)CNC(=O)[C@H](CCC(N)=O)NC(=O)C(C)(C)NC(=O)[C@@H](N)Cc4c[nH]cn4)[C@@H](C)O)[C@@H](C)O)C(=O)N[C@@H](CCC(=O)O)C(=O)N[C@@H](C)C(=O)N[C@@H](C)C(=O)N3)[C@@H](C)CC)C(=O)N[C@@H](Cc3c[nH]c4ccccc34)C(=O)N[C@@H](CC(C)C)C(=O)N[C@@H](CC(C)C)C(=O)N[C@@H](CCC(N)=O)C(=O)N[C@H](C(=O)O)[C@@H](C)O)[C@H](O)[C@H](O)[C@H]2O)[C@@H](O)[C@H](O)[C@H]1O [EU-A1581] (H-H[Aib]QGTFTSDYSKYLDEEAAKEFIK(Melibiouronoyl(1β-O-dodecyl))WLLQT-OH; lactam 16-20; N-terminus assumed)	–	0.086	1.03
